According to patent US8993756B2 (Merck Sharp & Dohme Corp., priority 2011, dated 2015):

Tests used:
[1] = target: JAK3 (Homo sapiens (Human), UniProt P52333); assay: Jak Biochemical HTRF Assay (JAK3); conditions: recombinant GST-tagged catalytic domain, [ATP] 2.9 μM
[2] = target: JAK2 (Homo sapiens (Human), UniProt O60674); assay: Jak Biochemical HTRF Assay (JAK2); conditions: recombinant GST-tagged catalytic domain, [ATP] 8.5 μM
JAK2, sequence (O60674 849-1124): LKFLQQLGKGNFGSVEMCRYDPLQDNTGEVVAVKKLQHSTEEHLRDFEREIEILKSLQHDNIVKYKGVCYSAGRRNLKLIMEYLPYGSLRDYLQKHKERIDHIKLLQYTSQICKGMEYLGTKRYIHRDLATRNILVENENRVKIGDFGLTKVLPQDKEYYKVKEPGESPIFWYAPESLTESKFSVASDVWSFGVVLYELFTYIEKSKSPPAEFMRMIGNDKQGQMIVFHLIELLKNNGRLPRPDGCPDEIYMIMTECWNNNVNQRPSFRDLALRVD

JAK3, sequence (P52333 822-1111): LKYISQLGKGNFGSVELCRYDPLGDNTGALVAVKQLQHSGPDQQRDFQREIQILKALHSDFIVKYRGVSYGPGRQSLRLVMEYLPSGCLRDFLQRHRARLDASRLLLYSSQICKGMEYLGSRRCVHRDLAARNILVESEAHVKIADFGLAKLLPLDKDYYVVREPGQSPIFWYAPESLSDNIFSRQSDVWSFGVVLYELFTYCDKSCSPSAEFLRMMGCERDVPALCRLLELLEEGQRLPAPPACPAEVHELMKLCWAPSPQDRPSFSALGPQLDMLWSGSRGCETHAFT

| IC50 ([1]; given as range class) [nM] | IC50 ([2]; given as range class) [nM] | IC50 [1] [nM] | IC50 [2] [nM] | Structure (SMILES) |
| --- | --- | --- | --- | --- |
| 10 to 500 | > 500 | – | – | CCOC(=O)c1c[nH]c2ncnc(-c3cccc(NCC(F)(F)F)c3)c12 [Example 3-1, Ethyl 4-{3-[(2,2,2-trifluoroethyl)amino]phenyl}-7H-pyrrolo[2,3-d]pyrimidine-5-carboxylate] |
| 10 to 500 | > 500 | – | – | CCOC(=O)c1c[nH]c2ncnc(-c3ccc(C)c(NCC(F)(F)F)c3)c12 [Example 3-2, ethyl 4-{4-methyl-3-[(2,2,2-trifluoroethyl)amino]phenyl}-7H-pyrrolo[2,3-d]pyrimidine-5-carboxylate] |
| – | – | 0.15 | > 1480 | C=C(C)C(=O)Nc1cccc(-c2ncnc3[nH]cc(C(=O)OCC)c23)c1 [Example 4-1, Ethyl-4-{3-[(2-methylacryloyl)amino]phenyl}-7H-pyrrolo[2,3-d]pyrimidine-5-carboxylate] |
| – | – | 4 | > 1500 | C=C(C)C(=O)Nc1cccc(-c2ncnc3[nH]cc(C(=O)OCC)c23)c1F [Example 4-2, Ethyl 4-{2-fluoro-3-[(2-methylacryloyl)amino]phenyl}-7H-pyrrolo[2,3-d]pyrimidine-5-carboxylate] |
| – | – | 0.085 | > 1500 | C=C(C)C(=O)Nc1cncc(-c2ncnc3[nH]cc(C(=O)OCC)c23)c1 [Example 4-3, Ethyl 4-{5-[(2-methylacryloyl)amino]pyridin-3-yl}-7H-pyrrolo[2,3-d]pyrimidine-5-carboxylate] |
| – | – | 0.049 | > 1500 | C=C(C)C(=O)Nc1cc(-c2ncnc3[nH]cc(C(=O)OCC)c23)cc(OC)n1 [Example 4-4, Ethyl 4-{2-methoxy-6-[(2-methylacryloyl)amino]pyridin-4-yl}-7H-pyrrolo[2,3-d]pyrimidine-5-carboxylate] |
| – | – | 0.04 | 790 | C=CC(=O)Nc1cccc(-c2ncnc3[nH]cc(C(=O)OCC)c23)c1 [Example 4-5, ethyl 4-[3-(acryloylamino)phenyl]-7H-pyrrolo[2,3-d]pyrimidine-5-carboxylate] |
| – | – | 1.6 | 483 | C/C=C/C(=O)Nc1cccc(-c2ncnc3[nH]cc(C(=O)OCC)c23)c1 [Example 4-6, ethyl 4-{3-[(2E)-but-2-enoylamino]phenyl}-7H-pyrrolo[2,3-d]pyrimidine-5-carboxylate] |
| 10 to 500 | > 500 | – | – | CCOC(=O)c1c[nH]c2ncnc(-c3cccc(NC(=O)CC)c3)c12 [Example 4-7, ethyl 4-[3-(propanoylamino)phenyl]-7H-pyrrolo[2,3-d]pyrimidine-5-carboxylate] |
| – | – | 0.61 | > 1500 | C=C(CC)C(=O)Nc1cccc(-c2ncnc3[nH]cc(C(=O)OCC)c23)c1 [Example 4-8, ethyl 4-{3-[(2-methylidenebutanoyl)amino]phenyl}-7H-pyrrolo[2,3-d]pyrimidine-5-carboxylate] |
| – | – | 0.013 | > 1500 | C=C(C)C(=O)Nc1cc(-c2ncnc3[nH]cc(C(=O)OCC)c23)ccc1Cl [Example 4-9, ethyl 4-{4-chloro-3-[(2-methylacryloyl)amino]phenyl}-7H-pyrrolo[2,3-d]pyrimidine-5-carboxylate] |
| – | – | 0.15 | > 1500 | C=C(C)C(=O)Nc1cc(-c2ncnc3[nH]cc(C(=O)OCC)c23)ccc1C [Example 4-10] |
| – | – | 0.033 | > 1500 | C=CC(=O)Nc1cc(-c2ncnc3[nH]cc(C(=O)OCC)c23)ccc1C [Example 4-11, ethyl 4-[3-(acryloylamino)-4-methylphenyl]-7H-pyrrolo[2,3-d]pyrimidine-5-carboxylate] |
| – | – | 0.19 | > 1500 | C=CC(=O)Nc1cccc(-c2ncnc3[nH]cc(C(=O)OCC)c23)c1C [Example 4-12, ethyl 4-[3-(acryloylamino)-2-methylphenyl]-7H-pyrrolo[2,3-d]pyrimidine-5-carboxylate] |
| 10 to 500 | > 500 | – | – | C=C(C)C(=O)Nc1cccc(-c2ncnc3[nH]cc(C(=O)OCC)c23)c1C [Example 4-13, ethyl 4-{2-methyl-3-[(2-methylacryloyl)amino]phenyl}-7H-pyrrolo[2,3-d]pyrimidine-5-carboxylate] |
| – | – | 0.066 | > 1500 | C=CC(=O)Nc1cc(-c2ncnc3[nH]cc(C(=O)OCC)c23)ccc1Cl [Example 4-14, ethyl 4-[3-(acryloylamino)-4-chlorophenyl]-7H-pyrrolo[2,3-d]pyrimidine-5-carboxylate] |
| – | – | 0.11 | > 1500 | C=CC(=O)Nc1cc(-c2ncnc3[nH]cc(C(=O)OCC)c23)ccc1OC [Example 4-15, ethyl 4-[3-(acryloylamino)-4-methoxyphenyl]-7H-pyrrolo[2,3-d]pyrimidine-5-carboxylate] |
| – | – | 0.07 | > 1500 | C=C(C)C(=O)Nc1cc(-c2ncnc3[nH]cc(C(=O)OCC)c23)ccc1F [Example 4-16, ethyl 4-{4-fluoro-3-[(2-methylacryloyl)amino]phenyl}-7H-pyrrolo[2,3-d]pyrimidine-5-carboxylate] |
| – | – | 0.11 | > 1500 | C=C(C)C(=O)Nc1cc(-c2ncnc3[nH]cc(C(=O)OCC)c23)ccc1OC [Example 4-17, ethyl 4-{4-methoxy-3-[(2-methylacryloyl)amino]phenyl}-7H-pyrrolo[2,3-d]pyrimidine-5-carboxylate] |
| – | – | 0.11 | > 1500 | C=C(C)C(=O)Nc1ccc(F)c(-c2ncnc3[nH]cc(C(=O)OCC)c23)c1 [Example 4-18, ethyl 4-{2-fluoro-5-[(2-methylacryloyl)amino]phenyl}-7H-pyrrolo[2,3-d]pyrimidine-5-carboxylate] |
| – | – | 0.05 | > 1500 | C=C(C)C(=O)Nc1cc(F)cc(-c2ncnc3[nH]cc(C(=O)OCC)c23)c1 [Example 4-19, ethyl 4-{3-fluoro-5-[(2-methylacryloyl)amino]phenyl}-7H-pyrrolo[2,3-d]pyrimidine-5-carboxylate] |
| – | – | 0.081 | > 1500 | C=CC(=O)N1CCc2ccc(-c3ncnc4[nH]cc(C(=O)OCC)c34)cc21 [Example 4-20, ethyl 4-(1-acryloyl-2,3-dihydro-1H-indol-6-yl)-7H-pyrrolo[2,3-d]pyrimidine-5-carboxylate] |
| – | – | 2.3 | > 1500 | C=C(C)C(=O)N1CCc2ccc(-c3ncnc4[nH]cc(C(=O)OCC)c34)cc21 [Example 4-21, ethyl 4-[1-(2-methylacryloyl)-2,3-dihydro-1H-indol-6-yl]-7H-pyrrolo[2,3-d]pyrimidine-5-carboxylate] |
| 10 to 500 | > 500 | – | – | C=C(C)C(=O)Nc1ccc(C#N)c(-c2ncnc3[nH]cc(C(=O)OCC)c23)c1 [Example 4-22, ethyl 4-{2-cyano-5-[(2-methylacryloyl)amino]phenyl}-7H-pyrrolo[2,3-d]pyrimidine-5-carboxylate] |
| – | – | 0.34 | > 1500 | C=C(C)C(=O)n1ccc2ccc(-c3ncnc4[nH]cc(C(=O)OCC)c34)cc21 [Example 4-23, ethyl 4-[1-(2-methylacryloyl)-1H-indol-6-yl]-7H-pyrrolo[2,3-d]pyrimidine-5-carboxylate] |

More lines, now with the values behind:

| Structure (SMILES) | IC50 ([1]; given as range class) [nM] | IC50 ([2]; given as range class) [nM] | IC50 [1] [nM] | IC50 [2] [nM] |
| --- | --- | --- | --- | --- |
| CCOC(=O)c1c[nH]c2ncnc(C3=CCOCC3)c12 [Example 1-98, ethyl 4-(3,6-dihydro-2H-pyran-4-yl)-7H-pyrrolo[2,3-d]pyrimidine-5-carboxylate] | 10 to 500 | > 500 | – | – |
| CCOC(=O)c1c[nH]c2ncnc(-c3cnn(CCOC)c3)c12 [Example 1-99, ethyl 4-[1-(2-methoxyethyl)-1H-pyrazol-4-yl]-7H-pyrrolo[2,3-d]pyrimidine-5-carboxylate] | 10 to 500 | > 500 | – | – |
| CCOC(=O)c1c[nH]c2ncnc(-c3ccc(C(=O)NC4CCOC4)cc3)c12 (stereo not drawn) [Example 1-100, ethyl 4-[4-(tetrahydrofuran-3-ylcarbamoyl)phenyl]-7H-pyrrolo[2,3-d]pyrimidine-5-carboxylate] | 10 to 500 | > 500 | – | – |
| CCOC(=O)c1c[nH]c2ncnc(-c3cccc(N(C)S(C)(=O)=O)c3)c12 [Example 1-102, ethyl 4-{3-[methyl(methylsulfonyl)amino]phenyl}-7H-pyrrolo[2,3-d]pyrimidine-5-carboxylate] | 10 to 500 | > 500 | – | – |
| CCOC(=O)c1c[nH]c2ncnc(-c3cccc(-n4cccn4)c3)c12 [Example 1-103, ethyl 4-[3-(1H-pyrazol-1-yl)phenyl]-7H-pyrrolo[2,3-d]pyrimidine-5-carboxylate] | 10 to 500 | > 500 | – | – |
| CCOC(=O)c1c[nH]c2ncnc(-c3ccc(CC#N)nc3)c12 [Example 1-104, ethyl 4-[6-(cyanomethyl)pyridin-3-yl]-7H-pyrrolo[2,3-d]pyrimidine-5-carboxylate] | 10 to 500 | > 500 | – | – |
| CCOC(=O)c1c[nH]c2ncnc(-c3cccc(C(C)(C)O)c3)c12 [Example 1-105, ethyl 4-[3-(1-hydroxy-1-methylethyl)phenyl]-7H-pyrrolo[2,3-d]pyrimidine-5-carboxylate] | 10 to 500 | > 500 | – | – |
| CCOC(=O)c1c[nH]c2ncnc(-c3cncc(CO)c3)c12 [Example 1-106, ethyl 4-[5-(hydroxymethyl)pyridin-3-yl]-7H-pyrrolo[2,3-d]pyrimidine-5-carboxylate] | 10 to 500 | > 500 | – | – |
| CCOC(=O)c1c[nH]c2ncnc(-c3ccc(C(C)(C)O)cc3)c12 [Example 1-107, ethyl 4-[4-(1-hydroxy-1-methylethyl)phenyl]-7H-pyrrolo[2,3-d]pyrimidine-5-carboxylate] | 10 to 500 | 10 to 500 | – | – |
| CCCOC(=O)c1c[nH]c2ncnc(-c3ccc4cn(C)nc4c3)c12 [Example 2-1, Propyl 4-(2-methyl-2H-indazol-6-yl)-7H-pyrrolo[2,3-d]pyrimidine-5-carboxylate] | – | – | 9 | 153 |
| C=CCOC(=O)c1c[nH]c2ncnc(-c3ccc4cn(C)nc4c3)c12 [Example 2-2, Prop-2-en-1-yl 4-(2-methyl-2H-indazol-6-yl)-7H-pyrrolo[2,3-d]pyrimidine-5-carboxylate] | 10 to 500 | 10 to 500 | – | – |
